Test results from patent publication US12577201B2, “Glutamine analogs” (Jacobio Pharmaceuticals Co., Ltd., priority 2020, dated 2026).

How the values were obtained:
[1] = Stability in liver microsomes, rat; type: in vitro ADME; settings: 60 minutes, read-out: In vitro Clint
Method: (§1) For metabolic stability, microsomes from human, monkey, dog, rat and mouse were used. For stability, prodrugs (1 μM) were spiked in each microsomes matrix and incubated in an orbital shaker at 37° C. Aliquots of 50 μL were taken from the reaction solution at 0, 15, 30, 45 and 60 min. The reaction was stopped by the addition of 4 volumes of cold acetonitrile with IS (100 nM alprazolam, 200 nM labetalol, 200 nM caffeine and 2 μM ketoprofen). Samples were centrifuged at 3, 220 g for 40 minutes. Aliquot of 100 μL of the supernatant was mixed with 100 μL of ultra-pure H2O and then used for LC-MS/MS analysis.
(§2) For LC-MS/MS, prodrugs were analyzed on an API 4000 instrument from AB Inc (Canada) with an ESI interface coupled to Shimadzu LC system on an Waters XSelect HSS T3 C18, 2.5 m, 2.1×30 mm column.
(§3) For data analysis, peak areas were determined from extracted ion chromatograms. The slope value, k, was determined by linear regression of the natural logarithm of the remaining percentage of the parent drug vs. incubation time curve. The in vitro half-life (in vitro t1/2) was determined from the slope value: in vitro t1/2=−(0.693/k)
(§4) Conversion of the in vitro t1/2 (min) into the in vitro intrinsic clearance (in vitro CLint, in μL/min/mg protein) was done using the following equation (mean of duplicate determinations): […]

[2] = Plasma stability, dog plasma; type: in vitro ADME; settings: 1 μM, 37° C., 4 hours
Method: (§5) For metabolic stability, plasma from dog, monkey, swine and human were used. For stability, prodrugs (1 μM) were spiked in respective solutions and incubated in an orbital shaker at 37° C. 50 μL aliquots of the mixture in duplicate were removed, and the reaction quenched by addition of four times the volume of ice cold acetonitrile spiked with the internal standard (Dexamethasone 100 ng/mL). The samples were vortexed for 30 s and centrifuged at 15000 g for 5 min. 100 μL of the supernatant was diluted with 100 μL of water and transferred to the 0.6 mL plastic tubes on 96-well plate. Prodrug disappearance was monitored over time using a liquid chromatography and tandem mass spectrometry (LC-MS/MS).
(§6) For LC-MS/MS, prodrugs were analyzed on a ExionLC AD HPLC system coupled to REF Triple Quad 5500+ mass spectrometer with an ESI interface on an Phenomenex Kinetex 5 m C18 100A (2.1*50) mm UPLC column. The autosampler was temperature controlled and was operated at 4° C. The mobile phase used for the chromatographic separation was composed of acetonitrile/water containing 0.10% formic acid and will run at a flow rate of 0.6 mL/min for 3.5 min using gradient elution. The column effluent was monitored using […], equipped with an electrospray probe set in the positive ionization mode. Samples were introduced into the ionization source through a heated nebulized probe (400° C.). Disappearance of prodrugs will be measured from ratio of peak areas of analyte to IS.
(§7) For quantification of compound remaining, disappearance of prodrugs was measured from ratio of peak areas of analyte to IS.

[3] = Stability in liver microsomes, human; type: in vitro ADME; settings: 60 minutes, read-out: In vitro Clint
Method: as §1, §2, §3, §4

[4] = Stability in liver microsomes, monkey; type: in vitro ADME; settings: 60 minutes, read-out: In vitro Clint
Method: as §1, §2, §3, §4

[5] = Plasma stability, monkey plasma; settings: 1 μM, 37° C., 4 hours
Method: as §5, with “The samples were vortexed for 30 s and centrifuged at 15000 g for 5 min.” left out
as §6, §7

[6] = Plasma stability, human plasma; settings: 1 μM, 37° C., 4 hours
Method: as §5, with “The samples were vortexed for 30 s and centrifuged at 15000 g for 5 min.” left out
as §6, §7

[7] = Plasma stability, swine plasma; settings: 1 μM, 37° C., 4 hours
Method: as §5, with “The samples were vortexed for 30 s and centrifuged at 15000 g for 5 min.” left out
as §6, §7

[8] = Stability in liver microsomes, dog; type: in vitro ADME; settings: 60 minutes, read-out: In vitro Clint
Method: as §1, §2, §3, §4

[9] = system: MC38 tumor cells; test: Anti-tumor efficacy in MC38 model in C57BL/6 mouse (Example 11); type: in vivo; settings: C57BL/6, MC38, 2 μmol/kg S.C. QD; for T/C (%) / TGI (%) / TV (mm^3) (Mean ± SEM) D6 / TV (mm^3) (Mean ± SEM) D10 / TV (mm^3) (Mean ± SEM) D13 / TV (mm^3) (Mean ± SEM) D17 / TV (mm^3) (Mean ± SEM) D20: Example 11; for TV (mm^3) at D21 (Mean ± SEM): Table 13
Method: Animal species: Mus musculus; Strain: C57BL/6; Age: 6-8 weeks; Sex: female. The MC38 tumor cells were maintained in vitro in DMEM medium supplemented with 10% FBS at 37° C., 5% CO2. The cells growing in an exponential growth phase were harvested and counted for tumor inoculation. The culture MC38 were harvested, re-suspended in PBS containing 50% Matrigel at a density of 1×10^7 cells/mL. Each mouse was inoculated subcutaneously in the right flank region with 1×10^6 cells in 0.1 mL of PBS containing 50% Matrigel for tumor development.
The treatments were started when the mean tumor size reached 82-129 mm^3 (average tumor size 102 mm^3). Each group contained 6 tumor bearing mice. Group 1 was treated with Vehicle (10% DMSO+90% Saline), S.C., QD.
(§8) In vivo efficacy was examined according to absolute tumor growth inhibition (TGI) and the safety was evaluated according to weight change and survival in mice.
Statistical analysis of difference in tumor volume among the groups was performed using one-way ANOVA followed by individual comparisons using Games-Howell post-hoc test (equal variance not assumed). All data was analyzed using SPSS 22.0 software.

[10] = Stability in liver microsomes, mouse; type: in vitro ADME; settings: 60 minutes, read-out: In vitro Clint
Method: as §1, §2, §3, §4

[11] = Body weight of C57BL/6 mice bearing MC38 tumors (Example 11); type: in vivo, Mus musculus; settings: C57BL/6, MC38, 2 μmol/kg S.C. QD; for BW Change (%): D6 to D20
Method: The treatments were started when the mean tumor size reached 82-129 mm^3 (average tumor size 102 mm^3). Each group contained 6 tumor bearing mice. Group 1 was treated with Vehicle (10% DMSO+90% Saline), S.C., QD. Group 2 was given treatments with compound 2 at 2 μmol/kg, S.C., QD. Group 3 was given treatments with compound 81 at 2 μmol/kg, S.C., QD. Group 4 was given treatments with compound 443 at 2 μmol/kg, S.C., QD. Group 5 was given treatments with compound 459 at 2 μmol/kg, S.C., QD. Group 6 was given treatments with compound 3 at 2 μmol/kg, S.C., QD.
as §8

| SMILES | microsomal CLint at 1 μM [1] [µL/min/mg] | plasma stability (compound remaining) [2] | microsomal CLint at 1 μM [3] [µL/min/mg] | microsomal CLint at 1 μM [4] [µL/min/mg] | plasma stability (compound remaining) [5] | plasma stability (compound remaining) [6] | plasma stability (compound remaining) [7] | microsomal CLint at 1 μM [8] [µL/min/mg] | T/C (%) [9] [%] | TGI (%) [9] [%] | TV (mm^3) (Mean ± SEM) D6 [9] | TV (mm^3) (Mean ± SEM) D10 [9] | TV (mm^3) (Mean ± SEM) D13 [9] | TV (mm^3) (Mean ± SEM) D17 [9] | TV (mm^3) (Mean ± SEM) D20 [9] | TV (mm^3) at D21 (Mean ± SEM) [9] [mm^3] | microsomal CLint at 1 μM [10] [µL/min/mg] | BW(g) (Mean ± SEM) Beginning (D6) [11] | BW Change (%) [11] | BW(g) (Mean ± SEM) End (D20) [11] |
| --- | --- | --- | --- | --- | --- | --- | --- | --- | --- | --- | --- | --- | --- | --- | --- | --- | --- | --- | --- | --- |
| CO[C@@H](CCSC)C(=O)N[C@@H](CCC(=O)C=[N+]=[N-])C(=O)OC(C)C [Compound 443, isopropyl (S)-6-diazo-2-((S)-2-methoxy-4-(methylthio)butanamido)-5-oxohexanoate] | 239 | substantially intact | 73.5 | 180 | substantially intact | substantially intact | substantially intact | 81.9 | 21.5 | 78.5 | 102 ± 6 | 152 ± 25 | 267 ± 65 | 384 ± 95 | 500 ± 119 | 500 ± 119 | 408 | 19.9 ± 0.6 | +11.9% | 22.3 ± 0.5 |
| CO[C@@H](C)C(=O)N[C@@H](CCC(=O)C=[N+]=[N-])C(=O)SC(C)C [Compound 459, S-isopropyl (S)-6-diazo-2-((S)-2-methoxypropanamido)-5-oxohexanethioate] | 115 | substantially intact | 18.9 | 130 | substantially intact | substantially intact | substantially intact | 9.57 | 11.8 | 88.2 | 102 ± 5 | 148 ± 22 | 183 ± 30 | 281 ± 65 | 275 ± 59 | 275 ± 59 | 71.7 | 19.9 ± 0.3 | +6.3% | 21.1 ± 0.5 |
